# System: Mouse embryonic fibroblasts (OG2-MEF; hemizygous for the Oct4-GFP transgene)
# Assay: Reprogramming of mouse embryonic fibroblasts, Oct4-GFP colony count
# Assay type: cell-based
# Conditions: OG2-MEF transfected with OSKM, after 15 days, compared to control group
# Description: FIG. 1 is a process of screening mouse cell reprogramming factors using analog library screening of novel trans-3-indoleacrylic acid-based compounds. In order to screen low-molecular-weight compounds that promote the production of reprogrammed stem cells, mouse embryonic stem cells (OG2-MEF; hemizygous for the Oct4-GFP transgene) were transduced with reprogramming viruses (Oct4, Sox2, Klf4, and c-Myc). After 5 days, the cells were seeded on gelatin-coated plates and then cultured in mouse embryonic stem cell culture media containing each of low-molecular-weight compounds until colonies having a morphology similar to that of mouse embryonic stem cells were formed. After 15 days, the number of colonies expressing endogenous Oct4 GFP fluorescence was measured, and compounds that increased the efficiency of reprogramming compared to that of a control group were selected. […] Oct4 (O), Sox2 (S), Klf4 (K), and cMyc (M). FIG. 1B is a graph showing the increase in efficiency of reprogramming by RSC-133 and ID-558 among screened compounds. The values shown on the graph are mean values. The data are expressed as mean±SD (n=3).
# The OSKM reprogramming factor virus was produced according to the method of Example 3. […] At 15 days after the transfection, the number of either colonies showing AP activity or colonies expressing endogenous Oct4 GFP fluorescence was measured to determine the efficiency of reprogramming.
# To discover low-molecular-weight compounds that are involved in the reprogramming process, analog library screening of novel trans-3-indoleacrylic acid-based compounds was performed in mouse cells. Mouse embryonic fibroblasts (OG2-MEF: hemizygous for the Oct4-GFP transgene) were transfected with reprogramming viruses of Oct4, Sox2, Klf4 and c-Myc (OSKM), and after 5 days, the cells were seeded on gelatin-coated 12-well plates and incubated with mouse embryonic stem cell culture medium containing each of low-molecular-weight compounds until colonies having a morphology similar to that mouse stem cells were formed so that endogenous Oct4 GFP fluorescence was expressed (FIG. 1A). […]
smiles,measurement,value
"CN(C)C(=O)c1ccc(O)c(NC(=O)C=Cc2c[nH]c3ccccc23)c1 [ID-558, 3-[3-(1H-indol-3-yl)-acrylamido]-4-hydroxy-N,N-dimethylbenzamide]",efficiency of reprogramming (number of colonies expressing endogenous Oct4 GFP fluorescence),showed the effect of increasing the efficiency of reprogramming

# Source: patent US9587225B2, “Low-molecular-compound for improving production, maintenance and proliferation of pluripotent stem cells, composition comprising the same, and culture method” (KOREA RESEARCH INSTITUTE OF BIOSCIENCE AND BIOTECHNOLOGY, priority 2012, dated 2017)
